Test results from patent US20070179060A1, “6-(Poly-substituted aryl)-4-aminopicolinates and their use as herbicides” (priority 2006, published 2007).

Experiments:
Assay in all cases: Postemergence herbicidal safening in cereal crops
Assay type in all cases: in vivo
Conditions in all cases: Table 5, applied alone, after 3 weeks
Papaver rhoeas = system: Papaver rhoeas
Method: (§1) Seeds of the desired test plant species were planted in Sun Gro MetroMix® 306 planting mixture, which typically has a pH of 6.0 to 6.8 and an organic matter content of about 30 percent, in plastic pots with a surface area of 103.2 square centimeters. When required to ensure good germination and healthy plants, a fungicide treatment and/or other chemical or physical treatment was applied. The plants were grown for 7-36 days in a greenhouse with an approximate 14 hour photoperiod which was maintained at about 18° C. during the day and 17° C. during the night. Nutrients and water were added on a regular basis and supplemental lighting was provided with overhead metal halide 1000-Watt lamps as necessary. The plants were employed for testing when they reached the second or third true leaf stage. Treatments consisted of compound 42 and cloquintocet-mexyl alone and in combination. Weighed amounts were placed in 25 mL glass vials and dissolved in a volume of 97:3 v/v acetone/DMSO to obtain 9 mg ai/mL stock solutions. […] A dilution solution was prepared by mixing 1 volume of 97:3 v/v acetone/DMSO and 2 volumes of an aqueous mixture containing acetone, water, isopropyl alcohol, DMSO, Agri-dex crop oil concentrate, and Triton® X-77 surfactant in a 64.7:26.0:6.7:2.0:0.7:0.01 v/v ratio. Compound requirements are based upon a 12 mL application volume at a rate of 187 L/ha. […] Formulated compounds were applied to the plant material with an overhead Mandel track sprayer equipped with a […] nozzles calibrated to deliver 187 L/ha over an application area of 0.503 square meters at a spray height of 18 inches (43 cm) above average plant canopy height. Control plants were sprayed in the same manner with the solvent blank. The treated plants and control plants were placed in a greenhouse as described above and watered by sub-irrigation to prevent wash-off of the test compounds. After 3 weeks the condition of the test plants as compared with that of the untreated plants was determined visually and scored on a scale of 0 to 100 percent where 0 corresponds to no injury and 100 corresponds to complete kill. Colby's equation was used to determine the herbicidal effects expected from the mixtures (Colby, S. R. 1967. Calculation of the synergistic and antagonistic response of herbicide combinations. Weeds 15:20-22.). The following equation was used to calculate the expected activity of mixtures containing two active ingredients, A and B: Expected=A+B-(A×B/100) • A=observed efficacy of active ingredient A at the same concentration as used in the mixture. • B=observed efficacy of active ingredient B at the same concentration as used in the mixture.

[1] = system: Triticum aestivum (spring wheat)
Method: as §1

Galium aparine = system: Galium aparine
Method: as §1

[2] = system: Hordeum vulgare (winter barley)
Method: as §1

For `COC(=O)c1nc(-c2ccc(Cl)c(OC)c2F)cc(N)c1Cl` [Compound 42, 4-Amino-3-chloro-6-(4-chloro-2-fluoro-3-methoxyphenyl)pyridine-2-carboxylic acid methyl ester], the “% Control PAPRH Ob” value (Papaver rhoeas; 35 g ai/ha) was 100%, the “% Control PAPRH Ob” value (Papaver rhoeas; 70 g ai/ha) was 100% and the “% Control TRZAS Ob” value ([1]; 35 g ai/ha) was 35%. The “% Control TRZAS Ob” value ([1]; 70 g ai/ha) was 40%, the “% Control GALAP Ob” value (Galium aparine; 35 g ai/ha) was 99% and the “% Control GALAP Ob” value (Galium aparine; 70 g ai/ha) was 100%. The “% Control HORVW Ob” value ([2]; 35 g ai/ha) was 0% and the “% Control HORVW Ob” value ([2]; 70 g ai/ha) was 15%.
